Measured values taken from patent US9890133B2 (priority 2011, dated 2018).
Converted amounts (≈) assume the structure as drawn.

Assay: in vitro
Conditions: human

Row | SMILES | CC50 (Picorana CC50) | CC50
1 | CC(C)c1ccc2c(c1)OC1(O)c3ccc([N+](=O)[O-])c(N)c3C(=O)C21O (centres unmarked) [Example 60, 1-Amino-4b,9b-dihydroxy-7-isopropyl-2-nitro-4bH-indeno[1,2-b]benzofuran-10(9bH)-one] | 10.6 µg/mL (≈ 29.6 µM) | –
2 | CC(=O)OC12C(=O)c3ccccc3C1(OC(C)=O)N(C(C)=O)c1cc(C)c(C)cc12 (centres unmarked) [Example 107, 5-Acetyl-7,8-dimethyl-10-oxo-4b,5,9b,10-tetrahydroindeno[1,2-b]indole-4b,9b-diyl diacetate] | > 50 µg/mL | –
3 | CC(C)c1ccc2c(c1)OC1(O)c3ccccc3C(=O)C21NC(=O)c1cc2ccccc2oc1=O (centres unmarked) [Example 225, N-(4b-hydroxy-7-isopropyl-10-oxo-9b,10-dihydro-4bH-benzo[d]indeno[1,2-b]furan-9b-yl)-2-oxo-2H-chromene-3-carboxamide] | 22.9 µg/mL (≈ 48.9 µM) | > 10 µg/mL
4 | CCNC(=O)N[C@@]12C(=O)c3ccccc3[C@]1(O)Oc1cc(C(C)C)ccc12 [Example 102, 1-Ethyl-3-((4bS,9bS)-4b-hydroxy-7-isopropyl-10-oxo-9b,10-dihydro-4bH-indeno[1,2-b]benzofuran-9b-yl)urea] | > 50 µg/mL | –
5 | CCCCCC(=O)NC12C(=O)c3ccccc3C1(OC(=O)CCCCC)Oc1cc(C(C)C)ccc12 (centres unmarked) [Example 91, Hexanoic acid 9b-hexanoylamino-7-isopropyl-10-oxo-9b,10-dihydro-5-oxa-indeno[2,1-a]inden-4b-yl ester] | > 50 µg/mL | –
6 | COc1ccc(NC(=O)NC23C(=O)c4c(N)cccc4C2(O)Oc2cc(C(C)C)ccc23)cc1 (centres unmarked) [Example 162] | – | > 10 µg/mL
7 | CC(=O)N1c2cc(C)c(C)cc2C2(O)C(=O)c3ccccc3C12O (centres unmarked) [Example 104, 5-Acetyl-4b,9b-dihydroxy-7,8-dimethyl-4b,5-dihydroindeno[1,2-b]indol-10(9bH)-one] | > 50 µg/mL | –
8 | CC(C)c1ccc2c(c1)OC1(OCc3ccccc3)c3ccccc3C(=O)C21O (centres unmarked) [Example 120, 4b-(Benzyloxy)-9b-hydroxy-7-isopropyl-4bH-indeno[1,2-b]benzofuran-10(9bH)-one] | 8.16 µg/mL (≈ 21.1 µM) | –
9 | CC(=O)NC12C(=O)c3ccccc3C1(OC(=O)C(C)(C)C)Oc1cc(C(C)C)ccc12 (centres unmarked) [Example 117, 9b-Acetamido-7-isopropyl-10-oxo-9b,10-dihydro-4bH-benzo[d]indeno[1,2-b]furan-4b-yl pivalate] | > 50 µg/mL | –
10 | CC(C)c1ccc2c(c1)OC1(O)c3cccc(N)c3C(=O)C21NC(=O)c1c(Cl)cc(Cl)cc1Cl (centres unmarked) [Example 192, N-(1-Amino-4b-hydroxy-7-isopropyl-10-oxo-9b,10-dihydro-4bH-indeno[1,2-b]benzofuran-9b-yl)-2,4,6-trichlorobenzamide] | – | > 10 µg/mL
11 | CC(C)c1ccc2c(c1)OC1(O)c3cccc(N)c3C(=O)C21NC(=O)c1cc2ccccn2c1 (centres unmarked) [Example 283, N-(1-Amino-4b-hydroxy-7-isopropyl-10-oxo-9b,10-dihydro-4bH-indeno[1,2-b]benzofuran-9b-yl) indolizine-2-carboxamide] | 5.47 µg/mL (≈ 12.1 µM) | > 10 µg/mL
12 | CC(=O)NC12C(=O)c3c(NC=O)cccc3C1(O)Oc1cc(C(C)C)ccc12 (centres unmarked) [Example 167, N-(1-Formamido-4b-hydroxy-7-isopropyl-10-oxo-9b,10-dihydro-4bH-benzo[d]-indeno[1,2-b]furan-9b-yl)acetamide] | – | > 10 µg/mL
13 | CC(C)c1ccc2c(c1)OC1(O)c3ccccc3C(=O)C21NC=O (centres unmarked) [Example 177, N-(4b-hydroxy-7-isopropyl-10-oxo-9b,10-dihydro-4bH-indeno[1,2-b]benzofuran-9b-yl)formamide] | – | > 10 µg/mL
14 | CC(C)c1ccc2c(c1)OC1(O)c3cccc(N4CCC(O)CC4)c3C(=O)C21O (centres unmarked) [Example 147, 4b,9b-Dihydroxy-1-(4-hydroxypiperidin-1-yl)-7-isopropyl-4bH-benzo[d]indeno[1,2-b]furan-10(9bH)-one] | 32.9 µg/mL (≈ 83.1 µM) | –
15 | CC(=O)Nc1c(N)ccc2c1C(=O)C1(O)c3ccc(C(C)C)cc3OC21O (centres unmarked) [Example 59, N-(2-Amino-4b,9b-dihydroxy-7-isopropyl-10-oxo-9b,10-dihydro-4bH-benzo[d]indeno[1,2-b]furan-1-yl)acetamide] | > 50 µg/mL | –
16 | CC(C)c1ccc2c(c1)OC1(O)c3cccc(N4CCCCC4)c3C(=O)C21O (centres unmarked) [Example 141, 4b,9b-Dihydroxy-7-isopropyl-1-piperidinyl-4bH-benzo[d]indeno-[1,2-b]furan-10(9bH)-one] | 3.47 µg/mL (≈ 9.14 µM) | –
17 | CC(C)c1ccc2c(c1)OC1(O)c3ccccc3C(=O)C21NC(=O)c1nc[nH]n1 (centres unmarked) [Example 222, N-(4b-Hydroxy-7-isopropyl-10-oxo-9b,10-dihydro-4bH-benzo[d]indeno[1,2-b]furan-9b-yl)-1H-1,2,4-triazole-3-carboxamide] | 39.4 µg/mL (≈ 101 µM) | > 10 µg/mL
18 | CC(C)c1ccc2c(c1)OC1(O)c3cccc(N)c3C(=O)C21NC(=O)c1cccc2cccnc12 (centres unmarked) [Example 202, N-(1-Amino-4b-hydroxy-7-isopropyl-10-oxo-9b,10-dihydro-4bH-indeno[1,2-b]benzofuran-9b-yl)quinoline-8-carboxamide] | 9.6 µg/mL (≈ 20.6 µM) | 3.24 µg/mL (≈ 6.96 µM)
19 | CC(=O)OC12Oc3cc(C(C)C)ccc3C1(OC(C)=O)C(O)c1ccccc12 (centres unmarked) [Example 127, 10-Hydroxy-7-isopropyl-9b,10-dihydro-4bH-indeno[1,2-b]benzofurane-4b,9b-diyl diacetate] | 37.6 µg/mL | –

Row | SMILES | CC50 (Picorana CC50) | CC50
20 | CCC(=O)NC12Oc3cc(C(C)C)ccc3C1(NC(=O)CC)C(=O)c1ccccc12 (centres unmarked) [Example 124] | > 50 µg/mL | –
21 | Cc1cc2c(cc1C)C1(O)C(=O)c3ccccc3C1(O)N2 (centres unmarked) [Example 106, 4b,9b-Dihydroxy-7,8-dimethyl-4b,5-dihydroindeno[1,2-b]indol-10(9bH)-one] | 3.53 µg/mL (≈ 12.5 µM) | –
22 | CC(C)c1ccc2c(c1)OC1(O)c3cccc(N)c3C(=O)C21NC(=O)Nc1ccc(F)cc1 (centres unmarked) [Example 164, 1-(1-Amino-4b-hydroxy-7-isopropyl-10-oxo-9b,10-dihydro-4bH-indeno[1,2-b]benzofuran-9b-yl)-3-(4-fluorophenyl)urea] | – | > 10 µg/mL
23 | CC(C)c1ccc2c(c1)OC1(O)c3ccc(N(C)C)cc3C(=O)C21O (centres unmarked) [Example 150, 2-(Dimethylamino)-4b,9b-dihydroxy-7-isopropyl-4bH-benzo[d]indeno[1,2-b]-furan-10(9bH)-one] | 1.32 µg/mL (≈ 3.89 µM) | –
24 | CCC(=O)N1c2cc(C)c(C)cc2C2(O)C(=O)c3ccccc3C12O (centres unmarked) [Example 105, 4b,9b-Dihydroxy-7,8-dimethyl-5-propionyl-4b,5-dihydroindeno[1,2-b]indol-10(9bH)-one] | > 50 µg/mL | –
25 | CC(C)c1ccc2c(c1)OC1(O)c3cccc(N)c3C(=O)C21NS(C)(=O)=O (centres unmarked) [Example 168, N-(1-Amino-4b-hydroxy-7-isopropyl-10-oxo-9b,10-dihydro-4bH-benzo[d]indeno[1,2-b]furan-9b-yl)methanesulfonamide] | – | > 10 µg/mL
26 | CC(C)c1ccc2c(c1)OC1(O)c3ccccc3C(=O)C21NC(=O)c1nc2ccccc2[nH]1 (centres unmarked) [Example 227, N-(4b-hydroxy-7-isopropyl-10-oxo-9b,10-dihydro-4bH-benzo[d]indeno[1,2-b]furan-9b-yl)-1H-benzo[d]imidazole-2-carboxamide] | 9.62 µg/mL (≈ 21.9 µM) | > 10 µg/mL
27 | CCCCCCNC12C(=O)c3ccccc3C1(O)Oc1cc(C(C)C)ccc12 (centres unmarked) [Example 67, 9b-Hexylamino-4b-hydroxy-7-isopropyl-4b,9b-dihydro-5-oxa-indeno[2,1-a]inden-10-one] | 9.42 µg/mL (≈ 24.8 µM) | –
28 | CCOP(=O)(NC12C(=O)c3c(N)cccc3C1(O)Oc1cc(C(C)C)ccc12)OCC (centres unmarked) [Example 169, Diethyl (1-amino-4b-hydroxy-7-isopropyl-10-oxo-9b,10-dihydro-4bH-indeno[1,2-b]benzofuran-9b-yl)phosphoamidate] | – | > 10 µg/mL
29 | CC(C)c1ccc2c(c1)OC1(O)c3ccc(N4CCC(O)CC4)cc3C(=O)C21O (centres unmarked) [Example 146, 4b,9b-Dihydroxy-7-isopropyl-2-(hydroxypiperidinyl)-4bH-benzo[d]indeno[1,2-b]furan-10(9bH)-one] | 1.53 µg/mL (≈ 3.87 µM) | –
30 | CC(C)C(=O)N1c2cc(C(C)C)ccc2C2(O)C(=O)c3ccccc3C12O (centres unmarked) [Example 145, 4b,9b-Dihydroxy-5-isobutyryl-7-isopropyl-5,9b-dihydro-4bH-indeno[1,2-b]indol-10-one] | 18.3 µg/mL (≈ 50.2 µM) | –
31 | CC(=O)NC12C(=O)c3c(Br)cccc3C1(O)Oc1cc(C(C)C)ccc12 (centres unmarked) [Example 137, N-(1-Bromo-4b-hydroxy-7-isopropyl-10-oxo-9b,10-dihydro-4bH-indeno[1,2-b]benzofuran-9b-yl)acetamide] | 40 µg/mL (≈ 96 µM) | –
32 | CC(C)c1ccc2c(c1)OC1(O)c3cccc(N)c3C(=O)C21NC(=O)NC(C)(C)C (centres unmarked) [Example 165] | – | > 10 µg/mL
33 | CC(C)c1ccc2c(c1)OC1(O)c3cccc(N)c3C(=O)C21NC(=O)c1ccc(-c2ccccc2)cc1 (centres unmarked) [Example 172] | – | > 10 µg/mL
34 | CC(C)c1ccc2c(c1)OC1(O)c3ccccc3C(=O)C21NC(=O)c1ccccn1 (centres unmarked) [Example 218, N-(4b-Hydroxy-7-isopropyl-10-oxo-9b,10-dihydro-4bH-indeno[1,2-b]benzofuran-9b-yl)picolinamide] | 8.49 µg/mL (≈ 21.2 µM) | > 10 µg/mL
35 | Cc1onc(-c2c(Cl)cccc2Cl)c1C(=O)NC12C(=O)c3ccccc3C1(O)Oc1cc(C(C)C)ccc12 (centres unmarked) [Example 236, 3-(2,6-dichlorophenyl)-N-(4b-hydroxy-7-isopropyl-10-oxo-9b,10-dihydro-4bH-benzo[d]indeno[1,2-b]furan-9b-yl)-5-methylisooxazole-4-carboxamide] | 21.4 µg/mL (≈ 38.9 µM) | > 10 µg/mL
36 | CC(C)c1ccc2c(c1)OC1(O)c3ccccc3C(=O)C21NC(=O)Cc1nnn[nH]1 (centres unmarked) [Example 220, N-(4b-Hydroxy-7-isopropyl-10-oxo-9b,10-dihydro-4bH-benzo[d]indeno[1,2-b]furan-9b-yl)-2-(1H-tetrazol-5-yl)acetamide] | > 50 µg/mL | > 10 µg/mL
37 | CC(C)c1ccc2c(c1)OC1(O)c3cccc(N)c3C(=O)C21NC(=O)c1ccc(N)o1 (centres unmarked) [Example 232, 5-amino-N-(1-amino-4b-hydroxy-7-isopropyl-10-oxo-9b,10-dihydro-4bH-indeno[1,2-b]benzofuran-9b-yl)furane-2-carboxamide] | > 50 µg/mL | > 10 µg/mL
38 | COC(=O)OC12Oc3cc(C(C)C)ccc3C1(NC(C)=O)C(=O)c1ccccc12 (centres unmarked) [Example 111, 9b-Acetamido-7-isopropyl-10-oxo-9b,10-dihydro-4bH-indeno[1,2-b]benzofuran-4b-yl methyl carbonate] | 43.6 µg/mL (≈ 110 µM) | –
